From patent US20080254136A1, “Antiprotozoal Agent” (JAPAN HEALTH SCIENCES FOUNDATION, priority 2004, published 2008)
Values after ≈ are worked out from the molar mass of the structure shown. Like-named read-outs stand apart in the source and are kept apart here.

Tested on: leishmania
Assay: antileishmanial activity measurement (leishmania culture, Tetracolor ONE, OD 450-630 nm)
Type: cell-based
Details: leishmania culture 2×10^5/ml, 27° C., 5% CO2, 48 hours, then Tetracolor ONE 6 hours, mean of 3 wells
Description: A hexane extract from Lithospermi Radix (obtained by the method used for Reference example 1), a hexane extract from a mixture of Lithospermi Radix and Angelicae Radix (obtained by the method used for Reference example 2), shikonin (Nagara Science), acetylshikonin (Nagara Science), β,β-dimethylacrylshikonin (Nagara Science), isobutyrylshikonin (Nagara Science), α-methyl-n-butyrylshikonin (Nagara Science), isovalerylshikonin (Nagara Science), β-hydroxyisovalerylshikonin (Nagara Science), and alkanine (Wako Pure Chemical Industries, Ltd.) were subjected to antileishmanial activity measurement.
First, 1 to 5 mg of each sample was dissolved in dimethylsulfoxide (DMSO) such that DMSO solutions (10 mg/ml) were prepared. Then, the solutions were diluted with Medium 199 (800 μg/ml) and allowed to pass through a membrane filter. The resulting test solutions were adjusted to 9 different concentrations. The test solutions (50 μl) at different concentrations and a leishmania culture solution (50 μl) that had been adjusted to a final concentration of 2×10^5/ml were introduced into wells of a microtiter plate such that the total volume of each culture solution was 100 μl in each well. After incubation at 27° C. in the presence of 5% CO2 for 48 hours, 10 μl of a Tetracolor ONE reagent was added thereto, followed by incubation for 6 hours. Thereafter, the OD value (450-630 nm) was measured using a microplate reader. Each sample at each concentration (3 wells) was subjected to measurement such that the mean value was obtained. Then, a graph was created such that the IC50 value was obtained.

| SMILES | IC50 [µg/mL] | IC50 (read-out: IC50) [µg/mL] |
| --- | --- | --- |
| CC(=O)O[C@H](CC=C(C)C)C1=CC(=O)c2c(O)ccc(O)c2C1=O [Acetylshikonin, acetylshikonin] | 0.026 (≈ 0.0787 µM) |  |
| CC(C)=CC[C@H](O)C1=CC(=O)c2c(O)ccc(O)c2C1=O [Alkanine, alkanine] |  | 0.028 (≈ 0.0971 µM) |
| CC(C)=CC[C@@H](OC(=O)C(C)C)C1=CC(=O)c2c(O)ccc(O)c2C1=O [Isobutyrylshikonin, isobutyrylshikonin] | 0.017 (≈ 0.0474 µM) |  |
| CC(C)=CCC(OC(=O)CC(C)C)C1=CC(=O)c2c(O)ccc(O)c2C1=O (centres unmarked) [Isovalerylshikonin, isovalerylshikonin] | 0.02 (≈ 0.0537 µM) |  |
| CC(C)=CC[C@@H](O)C1=CC(=O)c2c(O)ccc(O)c2C1=O [Shikonin, shikonin] | 0.09 (≈ 0.312 µM) |  |
| CCC(C)C(=O)OC(CC=C(C)C)C1=CC(=O)c2c(O)ccc(O)c2C1=O (stereo not drawn) [α-methyl-n-butyrylshikonin] | 0.014 (≈ 0.0376 µM) |  |
| CC(C)=CCC(OC(=O)C=C(C)C)C1=CC(=O)c2c(O)ccc(O)c2C1=O (stereo not drawn) [β,β-dimethylacrylshikonin] | 0.014 (≈ 0.0378 µM) |  |
| CC(C)=CC[C@@H](OC(=O)CC(C)(C)O)C1=CC(=O)c2c(O)ccc(O)c2C1=O [β-hydroxyisovalerylshikonin] | 0.19 (≈ 0.489 µM) |  |
